Results on twelve compounds are retold here after ChEMBL document CHEMBL1201862, “PubChem BioAssay data set” (2004).

Among the test systems are K562; SN12C; EKVX; SF-539; SK-MEL-28; OVCAR-5; CCRF-CEM; LOX IMVI; SNB-19; SK-MEL-2; SK-MEL-5; M19-MEL; HL-60; MOLT-4; HOP-92; UACC-62; HCT-116.
What all share (assay): inhibition of tumour cell growth, NCI panel, 48 h

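Briefly, cells in 96-well plates were exposed to five compound concentrations for 48 h, and endpoints were estimated by linear interpolation. GI50 marks 50% less growth.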 Calls of active or inactive are those of the source. Rule as the data show it: active = GI50 up to about 1.1 µM and inactive = higher.

In the case of `COc1c(C2=NC(C(C)C)CO2)ccc2ccccc12` (centres undefined), the GI50 in the experiment on K562 was 15.1 µM (inactive); with SN12C, 64.3 µM (inactive); in the experiment on EKVX, 37.1 µM (inactive); in the experiment on SF-539, 34.8 µM (inactive); with SK-MEL-28 it was 38.6 µM (inactive); with OVCAR-5, 82.8 µM (inactive). For the same compound, the GI50 is 15.3 µM (inactive) with CCRF-CEM; 21.5 µM (inactive) in the experiment with LOX IMVI; 50.5 µM (inactive) in the experiment with SNB-19; 65.5 µM (inactive) in the experiment with SK-MEL-2; 14.2 µM (inactive) in the experiment with SK-MEL-5; 55.5 µM (inactive) in the experiment with M19-MEL. The GI50 in the experiment with HL-60 was 14.6 µM (inactive); with MOLT-4, 14.2 µM (inactive); with HOP-92, 30.1 µM (inactive); in the experiment on UACC-62, 49 µM (inactive).

Take `CC(C)[C@@H]1C=C(c2ccccc2)c2ccccc2C1C(C#N)(C#N)C(C)C` (some centres undefined): the GI50 with K562 was 38.2 µM (inactive); with HCT-116, 32.9 µM (inactive); in the experiment with SN12C it was > 100 µM (inactive); in the experiment on EKVX, > 100 µM (inactive); in the experiment with SF-539, > 100 µM (inactive); in the experiment on SK-MEL-28 it was > 100 µM (inactive). The GI50 with OVCAR-5 was > 100 µM (inactive); in the experiment on CCRF-CEM it was > 100 µM (inactive); in the experiment on LOX IMVI it was > 100 µM (inactive); in the experiment on SNB-19, > 100 µM (inactive); in the experiment on SK-MEL-2, > 100 µM (inactive); in the experiment on SK-MEL-5, 39.7 µM (inactive). Moreover, the GI50 in the experiment with M19-MEL was > 100 µM (inactive); in the experiment on HL-60, 31.7 µM (inactive); with MOLT-4, 48.6 µM (inactive); in the experiment with HOP-92, > 100 µM (inactive); in the experiment with UACC-62, > 100 µM (inactive).

As for `Cc1ccc(Nc2nc3c(s2)C(=O)c2ccccc2C3=O)cc1`, the GI50 is 2.29 µM (inactive) in the experiment with K562; 1.92 µM (inactive) in the experiment on SN12C; 5.14 µM (inactive) in the experiment on EKVX; 5.35 µM (inactive) in the experiment with SF-539; 1.62 µM (inactive) in the experiment with SK-MEL-28; 1.91 µM (inactive) with OVCAR-5. Further, the GI50 with CCRF-CEM was 1.58 µM (inactive); in the experiment on LOX IMVI, 1.58 µM (inactive); in the experiment on SNB-19, 1.79 µM (inactive); in the experiment on SK-MEL-2 it was 1.89 µM (inactive); with SK-MEL-5, 1.75 µM (inactive); in the experiment with M19-MEL, 0.324 µM (active). Further, the GI50 in the experiment on HL-60 is 0.229 µM (active); in the experiment with MOLT-4, 1.04 µM (active); in the experiment with HOP-92, 2.86 µM (inactive); in the experiment on UACC-62, 1.87 µM (inactive).

`Cc1nc2ccccc2c(=O)n1/N=C(\N=N\c1cc(Cl)ccc1Cl)c1cccc(-c2ccco2)c1`: the GI50 in the experiment with K562 is > 10 µM (inactive); in the experiment on HCT-116, 53.3 µM (inactive); with SN12C, 88.3 µM (inactive); in the experiment on EKVX, > 100 µM (inactive); in the experiment on SF-539 it was > 100 µM (inactive); in the experiment on SK-MEL-28, > 100 µM (inactive). The GI50 in the experiment on OVCAR-5 is > 100 µM (inactive); with CCRF-CEM, > 10 µM (inactive); with LOX IMVI, > 100 µM (inactive); in the experiment on SNB-19 it was > 100 µM (inactive); with SK-MEL-2 it was 84.5 µM (inactive); with SK-MEL-5, 96.4 µM (inactive). For the same compound, the GI50 with M19-MEL was > 100 µM (inactive); in the experiment with HL-60, > 10 µM (inactive); in the experiment with MOLT-4, 35.3 µM (inactive); in the experiment with HOP-92, 27.6 µM (inactive); with UACC-62, 48.1 µM (inactive).

For `FC(F)(F)c1nc2ccc3[nH]c4c(-c5ccccc5)nccc4c3c2[nH]1`, the GI50 in the experiment on K562 is > 56.9 µM (inactive); in the experiment on HCT-116, > 74.5 µM (inactive); in the experiment with SN12C, > 100 µM (inactive); in the experiment with EKVX, > 100 µM (inactive); in the experiment on SF-539, > 100 µM (inactive); in the experiment with SK-MEL-28, > 100 µM (inactive). Further, the GI50 in the experiment with OVCAR-5 was > 100 µM (inactive); in the experiment on CCRF-CEM it was > 45.7 µM (inactive); in the experiment on LOX IMVI, > 46.8 µM (inactive); in the experiment with SNB-19, > 100 µM (inactive); in the experiment on SK-MEL-2, > 100 µM (inactive); in the experiment on SK-MEL-5, > 100 µM (inactive). Further, the GI50 was > 100 µM (inactive) with M19-MEL; 97.5 µM (inactive) in the experiment on HL-60; > 100 µM (inactive) in the experiment on MOLT-4; > 100 µM (inactive) in the experiment with HOP-92; > 100 µM (inactive) in the experiment with UACC-62.

On to `CC1(Cl)C(=O)NC(=O)N([C@H]2C[C@H](O)[C@@H](CO)O2)C1N=[N+]=[N-]` (some centres undefined), for which the GI50 was > 100 µM (inactive) in the experiment with K562; > 100 µM (inactive) with HCT-116; > 100 µM (inactive) in the experiment on SN12C; > 100 µM (inactive) with EKVX; > 100 µM (inactive) in the experiment on SF-539; > 61.1 µM (inactive) with SK-MEL-28. For the same compound, the GI50 in the experiment with OVCAR-5, in the experiment on CCRF-CEM, in the experiment with LOX IMVI, in the experiment with SNB-19, in the experiment on SK-MEL-2 and in the experiment on SK-MEL-5 was > 100 µM (inactive) each time. Besides, the GI50 in the experiment with M19-MEL, with HL-60, in the experiment on MOLT-4, in the experiment with HOP-92 and in the experiment on UACC-62 was > 100 µM (inactive) throughout.

Regarding `CCN(CC)CCC(=O)Nc1ccc2c(c1)C(=O)c1ccc(NC(=O)CCN(CC)CC)cc1C2=O`, the GI50 in the experiment with K562 is 3.29 µM (inactive); in the experiment with HCT-116, 2.19 µM (inactive); with SN12C, 2.84 µM (inactive); in the experiment on EKVX, 3.25 µM (inactive); in the experiment with SF-539, 3.51 µM (inactive); in the experiment on SK-MEL-28, 12.2 µM (inactive). For the same compound, the GI50 with OVCAR-5 was 11.2 µM (inactive); with CCRF-CEM it was 3.55 µM (inactive); in the experiment on LOX IMVI, 2.19 µM (inactive); in the experiment on SNB-19, 5.48 µM (inactive); with SK-MEL-2, 4.79 µM (inactive); in the experiment on SK-MEL-5, 7.08 µM (inactive). Further, the GI50 with M19-MEL was > 100 µM (inactive); in the experiment on HL-60, 4.23 µM (inactive); in the experiment with MOLT-4, 2.07 µM (inactive); in the experiment on HOP-92, 12.8 µM (inactive); in the experiment with UACC-62, 10.4 µM (inactive).

As for `CC(C)N(C(=O)C12C3C4C5C3C1(C(=O)O)C5C42)C(C)C` (centres undefined), the GI50 in the experiment on K562, in the experiment on HCT-116, in the experiment on SN12C, with EKVX, in the experiment with SF-539 and in the experiment on SK-MEL-28 was > 100 µM (inactive) throughout. Further, the GI50 with OVCAR-5, in the experiment on CCRF-CEM, in the experiment on LOX IMVI, with SNB-19, in the experiment with SK-MEL-2 and in the experiment on SK-MEL-5 was > 100 µM (inactive) each time. For the same compound, the GI50 in the experiment on M19-MEL, with HL-60, in the experiment with MOLT-4, with HOP-92 and with UACC-62 was > 100 µM (inactive) each time.

As for `Cc1ccc(NC(=O)C(=O)C2NC(=S)NC2=O)c([N+](=O)[O-])c1` (centres undefined), the GI50 in the experiment with K562 is > 100 µM (inactive); in the experiment on HCT-116, > 100 µM (inactive); in the experiment on SN12C it was > 100 µM (inactive); with EKVX, 57.3 µM (inactive); with SF-539, > 100 µM (inactive); in the experiment on SK-MEL-28, > 100 µM (inactive). The GI50 in the experiment with OVCAR-5, in the experiment with CCRF-CEM, in the experiment on LOX IMVI, with SNB-19, with SK-MEL-2 and in the experiment with SK-MEL-5 was > 100 µM (inactive) each time. Further, the GI50 in the experiment on M19-MEL was > 100 µM (inactive); with HL-60, > 100 µM (inactive); with MOLT-4 it was > 100 µM (inactive); with HOP-92 it was 45.5 µM (inactive); with UACC-62, > 100 µM (inactive).

Take `NS(=O)(=O)c1ccc(NC(=O)c2cccc3c(=O)c4ccccc4[nH]c23)cc1`: the GI50 is 62.2 µM (inactive) in the experiment on K562; 32.4 µM (inactive) in the experiment with HCT-116; 94.4 µM (inactive) with SN12C; > 100 µM (inactive) in the experiment with EKVX; 22.7 µM (inactive) with SF-539; 54.1 µM (inactive) in the experiment on SK-MEL-28. Moreover, the GI50 was > 100 µM (inactive) with OVCAR-5; 5.85 µM (inactive) in the experiment with CCRF-CEM; 20.7 µM (inactive) in the experiment with LOX IMVI; 76.4 µM (inactive) with SNB-19; 41 µM (inactive) in the experiment on SK-MEL-2; 65.5 µM (inactive) with SK-MEL-5. The GI50 with M19-MEL was 73.3 µM (inactive); with HL-60 it was 31.8 µM (inactive); in the experiment on MOLT-4 it was 18.2 µM (inactive); in the experiment with HOP-92, > 100 µM (inactive); in the experiment on UACC-62, 41.8 µM (inactive).

As to `O=[N+]([O-])c1nccn1COCCI`, the GI50 in the experiment on K562, with HCT-116, with SN12C, in the experiment with EKVX, in the experiment on SF-539 and in the experiment with SK-MEL-28 was > 100 µM (inactive) in each case. Further, the GI50 with OVCAR-5, in the experiment on CCRF-CEM, in the experiment on LOX IMVI, in the experiment on SNB-19, with SK-MEL-2 and in the experiment on SK-MEL-5 was > 100 µM (inactive) each time. For the same compound, the GI50 with M19-MEL, with HL-60, in the experiment with MOLT-4, in the experiment on HOP-92 and in the experiment on UACC-62 was > 100 µM (inactive) in each case.

Consider `CC1CCC2(OCCO2)[C@]2(C)CC(O)C(=O)C=C12` (some centres undefined), for which the GI50 with K562, with SN12C, in the experiment on EKVX, with SF-539, in the experiment with SK-MEL-28 and in the experiment on OVCAR-5 was > 100 µM (inactive) throughout. The GI50 in the experiment with CCRF-CEM, with SNB-19, with SK-MEL-2, in the experiment on SK-MEL-5, in the experiment on M19-MEL and in the experiment with HL-60 was > 100 µM (inactive) each time. The GI50 with MOLT-4 and in the experiment with HOP-92 was > 100 µM (inactive) in each case.
